Experiment [1] deals with T1, ISY (C. roseus) (Catharanthus roseus, UniProt K7WDL7).
T1 construct: positive control; construct not described here; dimer 83 kDa
The experiment is described as follows: end point assay, GC-MS of products. Type of experiment: biochemical. The note with it: 500 μM 8-oxogeranial, 1 mM NADPH, 200 mM MOPS pH 7.0, 100 mM NaCl, 0.5% THF, 30 °C, 3 h; positive control.

The target in experiment [2] is T2, NcISY2 (Nepeta cataria, UniProt A0A221J5X1).
T2 construct: gene ISY2; N-terminal His-tag (pOPINF), E. coli soluBL21 (DE3), Ni-NTA and gel filtration; not fully homogeneous; dimer fraction
T2 sequence (A0A221J5X1 2-397): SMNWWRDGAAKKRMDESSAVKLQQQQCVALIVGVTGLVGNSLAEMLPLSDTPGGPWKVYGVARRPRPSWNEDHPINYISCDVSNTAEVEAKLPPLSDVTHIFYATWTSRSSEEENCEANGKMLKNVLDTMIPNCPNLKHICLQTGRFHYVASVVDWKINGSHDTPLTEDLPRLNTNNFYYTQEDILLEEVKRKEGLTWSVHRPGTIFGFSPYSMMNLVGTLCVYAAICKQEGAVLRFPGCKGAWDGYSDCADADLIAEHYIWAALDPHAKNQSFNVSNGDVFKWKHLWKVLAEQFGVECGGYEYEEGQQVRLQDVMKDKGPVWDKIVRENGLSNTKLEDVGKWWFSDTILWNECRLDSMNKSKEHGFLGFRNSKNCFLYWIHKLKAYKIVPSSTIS
The experiment is described as follows: end point assay, GC-MS of products. The settings on record: 500 μM 8-oxogeranial, 1 mM NADPH, 200 mM MOPS pH 7.0, 100 mM NaCl, 0.5% THF, 0.5 μM enzyme, 30 °C, 3 h. Type of experiment: biochemical.

These results are taken from paper PMC5739345, “Identification of iridoid synthases from Nepeta species: Iridoid cyclization does not determine nepetalactone stereochemistry” (Phytochemistry, 2018).

Each structure is given as a SMILES string.

T1 sequence (K7WDL7 whole entry): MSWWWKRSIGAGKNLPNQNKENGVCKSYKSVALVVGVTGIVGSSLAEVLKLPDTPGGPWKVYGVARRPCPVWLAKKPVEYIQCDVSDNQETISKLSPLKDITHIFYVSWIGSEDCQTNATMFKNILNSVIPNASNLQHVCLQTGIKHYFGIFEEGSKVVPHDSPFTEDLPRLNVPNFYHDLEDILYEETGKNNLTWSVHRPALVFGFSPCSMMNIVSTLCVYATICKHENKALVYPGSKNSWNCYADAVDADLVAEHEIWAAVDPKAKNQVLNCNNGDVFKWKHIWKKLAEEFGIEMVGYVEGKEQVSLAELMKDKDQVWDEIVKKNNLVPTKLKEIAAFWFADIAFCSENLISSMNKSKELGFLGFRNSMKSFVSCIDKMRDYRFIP

Consider `C/C(C=O)=C\CC/C(C)=C/C=O` [8-oxogeranial], for which the “end point assay, GC-MS of products” value in experiment [1] was “a positive control was conducted with ISY (C. roseus)”; in experiment [2], “the other (NcISY2 and NmISY2) has robust catalytic activity toward the 8-oxogeranial substrate”.
